In patent US20210007356A1, “IMIDE DERIVATIVE AND FUNGICIDE CONTAINING SAID DERIVATIVE AS ACTIVE INGREDIENT” (HOKKO CHEMICAL INDUSTRY CO., LTD., priority 2018, published 2021):
Where two headings read alike, the source gives them in different places.

How the values were obtained:
[1] = test system: barley powdery mildew fungus (Erysiphe graminis); experiment: Test Example 2: control effect against barley powdery mildew by foliage application; format: in vivo; details: wettable powder diluted to 100 ppm, 10 mL per pot foliage spray on barley; inoculated day after; 7 days after inoculation
[2] = test system: rice blast fungus (Pyricularia grisea); format: in vivo; details: flowable 5,000 ppm, 50 mL irrigation of nursery box, paddy rice; inoculated after 3 weeks; 7 days after inoculation
[3] = test system: rice blast fungus (Pyricularia grisea); format: in vivo; details: 5 g of granule on nursery box, paddy rice; inoculated after 3 weeks; 7 days after inoculation
[4] = test system: rice blast fungus (Pyricularia grisea); format: in vivo; details: flowable 1,000 ppm, 1 mL dripped in paddy water, inoculated after 1 week, 7 days after inoculation
[5] = test system: rice sheath blight fungus (Thanatephorus cucumeris); experiment: Test Example 8: control effect against rice sheath blight by box treatment (granule); details: 5 g of granule on nursery box, paddy rice; inoculated after 3 weeks; 7 days after inoculation
[6] = test system: rice sheath blight fungus (Thanatephorus cucumeris); experiment: Test Example 6: control effect against rice sheath blight by box treatment (flowable formulation); details: flowable 5,000 ppm, 50 mL irrigation of nursery box, paddy rice; inoculated after 3 weeks; 7 days after inoculation
[7] = test system: rice sheath blight fungus (Thanatephorus cucumeris); experiment: Test Example 10: control effect against rice sheath blight by water surface application (flowable formulation); details: flowable 1,000 ppm, 1 mL dripped in paddy water, inoculated after 1 week, 7 days after inoculation

Structure (SMILES)	evaluation value of control effect (from control value, lesion area percentage) [1]	evaluation value of control effect (from control value, number of lesions) [2]	evaluation value of control effect (from control value, number of lesions) [3]	evaluation value of control effect (from control value, number of lesions) [4]	evaluation value of control effect (from control value, lesion height) [5]	evaluation value of control effect (from control value, lesion height) [6]	evaluation value of control effect (from control value, lesion height) [7]
Cc1nc(C(F)F)c(C(=O)N(C(=O)c2cccnc2C(F)F)c2ccccc2C(C)CC(C)C)s1 (stereo not drawn) [7-270]	4	5	5	5	5	5	5
Cc1nc(C(F)F)c(C(=O)N(C(=O)c2cc(Cl)c(Cl)s2)c2ccccc2C(C)CC(C)C)s1 (stereo not drawn) [7-274]	4	5	5	5	5	5	5
Cc1nc(C(F)F)c(C(=O)N(C(=O)c2onc(Cl)c2Cl)c2ccccc2C(C)CC(C)C)s1 (stereo not drawn) [7-277]	5	5	5	5	5	5	5
Cc1ncc(C(=O)N(C(=O)c2cc(Cl)no2)c2ccccc2C(C)CC(C)C)s1 (stereo not drawn) [7-278]	4	5	5	5	5	5	5
Cc1nc(C(F)(F)F)c(C(=O)N(C(=O)c2snnc2C)c2c(Br)cc(OC(F)(F)F)cc2Br)s1 [7-280]	4	5	5	5	5	5	5
Cc1nc(C(F)(F)F)c(C(=O)N(C(=O)c2snnc2C(F)F)c2c(Br)cc(OC(F)(F)F)cc2Br)s1 [7-281]	4	5	5	5	5	5	5
Cc1nc(C(F)(F)F)c(C(=O)N(C(=O)c2scnc2C(F)F)c2c(Br)cc(OC(F)(F)F)cc2Br)s1 [7-283]	4	5	5	5	5	5	5
Cc1nc(C(F)F)c(C(=O)N(C(=O)c2cc(F)nc(F)c2)c2ccccc2C(C)CC(C)C)s1 (stereo not drawn) [7-288]	4	5	5	5	5	5	5
Cc1nnsc1C(=O)N(C(=O)c1cccnc1C(F)F)c1ccccc1C(C)CC(C)C (stereo not drawn) [13-10]	5	5	5	5	5	5	5
CC(C)CC(C)c1ccccc1N(C(=O)c1cccnc1C(F)F)C(=O)c1cccc2nnsc12 (stereo not drawn) [13-16]	4	5	5	5	5	5	5
CC(C)CC(C)c1ccccc1N(C(=O)c1cccnc1C(F)F)C(=O)c1onc(Cl)c1Cl (stereo not drawn) [13-49]	5	5	5	5	5	5	5
CC(C)CC(C)c1ccccc1N(C(=O)c1cccnc1Cl)C(=O)c1snc(Cl)c1Cl (stereo not drawn) [13-53]	4	5	5	5	5	5	5
